Results: patent publication US6878713B2, “Generation triple-targeting, chiral, broad-spectrum antimicrobial 7-substituted piperidino-quinolone carboxylic acid derivatives, their preparation, compositions and use as medicaments” (Wockhardt Limited, priority 2001, dated 2005)
Converted amounts (≈) assume the structure as drawn. Like-named read-outs stand apart in the source and are kept apart here.

Tests used:
[1] = system: Multidrug-Resistant (MDR) Pneumococcal Infections; assay: In-vivo antimicrobial test, systemic infection model (mouse septicemia), Table 22; set-up: species or system Swiss male and female mice; settings: oral dosing 1 hour and 5 hours post-infection, survival on day 7, strain resistant to β-lactams, macrolides and fluoroquinolones; for ED50: Streptococcus pneumoniae, po, read-out: ED50 p.o., MDR S. pneumoniae 718; for ED50 p.o., MDR S. pneumoniae 718: hydrochloride
Description: The in vivo efficacy was studied through mouse septicemia model of infection in Swiss male and female mice (4 weeks old, 20+2 g weight) using 6 animals in each group. Infective organisms were inoculated intraperitonially. Compound were administered by oral route 1 hour and 5 hours post-infection. […] Appropriate comparators were included in the study.

[2] = system: Fluoroquinolone Sensitive Strains; assay: In-vitro antimicrobial test (MIC, two-fold serial agar dilution, NCCLS), Table 17; assay type: cell-based
Description: (§1) The test method was in accordance with the standard NCCLS protocol (Methods for Dilution Antimicrobial Susceptibility Tests for Bacteria that grow Aerobicially, Approved Standards, M7-A5, Fifth Edition, January 2000).
(§2) The antibacterial activities (minimum inhibitory concentration: MIC, […]) were determined by using the two-fold serial agar dilution method recommended by NCCLS. The media used for preculture and main culture were Tryptic Soya broth (Difco) and Mueller Hinton medium (Difco), respectively. The Mueller Hinton agar was supplemented with 5% sheep blood for streptococci. Overnight cultures were diluted with buffered saline (pH 7.2) to the final cell density of 5×10^6-10^7 CFU/ml, and each bacterial suspension was applied with a replicator (Denley's multipoint inoculator, UK) onto a series of Mueller-Hinton agar plates containing antibacterial agents at various concentrations. Final inoculum was approximately 10^4 CFU/spot. The plates were incubated for 18 hrs at 37° C. The MIC was defined as the lowest concentration of an antibacterial agent that inhibits the development of visible microbial growth on agar.

[3] = system: V79 (Chinese Hamster Lung); assay: Cytotoxicity test (Alamar blue), V79 cells, Table 23; assay type: cell-based; settings: 3 hrs drug exposure, further 96 hrs incubation
Description: Compounds were evaluated for their cytotoxic potential against two […] viz. […] Cells were grown for 3-4days in a culture flask using D-MEM (Dulbecco's Modified Eagle. […] Freshly grown cells were distributed in microtiter plates at a cell density of 10^5-10^6 cells/well and allowed to […] form monolayer by incubating the microtiter plate at […] for 24 hrs. […] Following 3 hrs. of drug exposure, cell were washed with D-MEM and incubated further for 96 hrs. Cytotoxic effects of drugs were monitored through daily microscopic observation and by ascertaining the metabolic status through redox indicator Alamar blue. Healthy actively metabolising cells bring about colour change of Alamar blue from blue to pink within an overnight incubation. Cytotoxic drugs inhibit this reaction resulting into blue coloured well. Minimum drug concentration inhibiting Alamar blue color change i.e. resulting into blue coloured wells for a given drug is considered cytotoxic concentration.

[4] = system: Fluoroquinolone-Resistant Strains; assay: In-vitro antimicrobial test (MIC, two-fold serial agar dilution, NCCLS), Table 18; assay type: cell-based
Description: as §1, §2

J 744 (mouse macrophage) = assay: Cytotoxicity test (Alamar blue), J 744 cells, Table 23; assay type: cell-based; settings: 3 hrs drug exposure, further 96 hrs incubation
Description: Compounds were evaluated for their cytotoxic potential against two celllines viz. […] Cytotoxic drugs inhibit this reaction resulting into blue coloured well. Minimum drug concentration inhibiting Alamar blue color change i.e. resulting into blue coloured wells for a given drug is considered cytotoxic concentration.

[5] = system: Trovafloxacin-Resistant and Vancomycin-Resistant Enterococci; assay: In-vitro antimicrobial test (MIC, two-fold serial agar dilution, NCCLS), Table 19; assay type: cell-based
Text: The comparative antimicrobial activity of representative compounds, of the invention and reference compounds against various sensitive and resistant microorganisms is given in Tables 17 to 20. The test method was in accordance with the standard NCCLS protocol (Methods for Dilution Antimicrobial Susceptibility Tests for Bacteria that grow Aerobicially, Approved Standards, M7-A5, Fifth Edition, January 2000).
as §2

MRSA 5027 = assay: Resistance to resistance development (sequential passages through drug-containing media); assay type: cell-based; settings: Staphylococcus aureus
[6] = Enterococcus faecalis, ATCC29212, E. faecalis ATCC 29212
[7] = Escherichia coli, ATCC25922, E. coli ATCC 25922
[8] = Pseudomonas aeruginosa, P. aeruginosa 27853
[9] = S. sanguis ATCC 10556 (Viridans Streptococci group)
[10] = Staphylococcus aureus, ATCC 25923 / MSSA, MSSA ATCC 25923
[11] = Streptococcus pneumoniae, ATCC49619, S. pneumoniae ATCC 49619
[12] = Staphylococcus aureus, MRSA, MRSA 032
[13] = Streptococcus mitis, Cipro^R S. mitis 938
[14] = Streptococcus pneumoniae, FQ^R S. pneumoniae 718
[15] = Staphylococcus epidermidis, trovafloxacin-resistant methicillin-resistant S. epidermidis (MRSE) 110, 18 hrs at 37° C, read-out: MICs, Trova-Resist MRSE 110
[16] = vancomycin-resistant Enterococcus faecium (VRE) 336, 18 hrs at 37° C, read-out: MICs, VRE 336
[17] = read-out: MIC against MRSA 5027, initially

SMILES	ED50 [1]	MIC [2, 6]	MIC [2, 7]	MIC [2, 8]	MIC [2, 9]	MIC [2, 10]	MIC [2, 11]	Cytotoxic concentration, V 79 CHL [3]	melting point	MIC ([4]; Cipro^R S. sanguis 941)	MIC [4, 12]	MIC [4, 13]	MIC [4, 14]	Cytotoxic concentration, J 744 Macrophage (J 744 (mouse macrophage))	also measured
COc1c(N2CCNC(C)C2)c(F)cc2c(=O)c(C(=O)O)cn(C3CC3)c12 (stereo not shown) [Gatifloxacin]	> 100 mg/kg	–	–	–	–	–	–	–	–	–	–	–	–	–	–
Cc1c(N2CC[C@@H](N)[C@H](C)C2)c(F)cc2c(=O)c(C(=O)O)cn(C3CC3)c12 (single isomer, unassigned) [Compound 97, trans-1-Cyclopropyl-6-fluoro-1,4-dihydro-8-methyl-7-(4-amino-3-methyl-1-piperidinyl)-4-oxo-quinoline-3-carboxylic acid]	–	0.2 µg/mL (≈ 0.536 µM)	0.4 µg/mL (≈ 1.07 µM)	12.5 µg/mL (≈ 33.5 µM)	0.2 µg/mL (≈ 0.536 µM)	0.012 µg/mL (≈ 0.0321 µM)	0.1 µg/mL (≈ 0.268 µM)	>1000 µg/mL	223 to 225 °C	3.12 µg/mL (≈ 8.36 µM)	0.8 µg/mL (≈ 2.14 µM)	3.12 µg/mL (≈ 8.36 µM)	3.12 µg/mL (≈ 8.36 µM)	>1000 µg/mL	–
Cc1c(N2CC[C@@H](O)[C@H](C)C2)c(F)cc2c(=O)c(C(=O)O)cn(C3CC3)c12 (relative stereo) [Compound 94, trans-1-Cyclopropyl-6-fluoro-8-methyl-7-(4-hydroxy-3-methyl-1-piperidinyl)-1,4-dihydro-4-oxo-quinoline-3-carboxylic acid]	–	0.1 µg/mL (≈ 0.267 µM)	0.2 µg/mL (≈ 0.534 µM)	3.12 µg/mL (≈ 8.33 µM)	0.025 µg/mL (≈ 0.0668 µM)	0.003 µg/mL (≈ 0.00801 µM)	0.025 µg/mL (≈ 0.0668 µM)	>1000 µg/mL	–	0.4 µg/mL (≈ 1.07 µM)	0.2 µg/mL (≈ 0.534 µM)	0.4 µg/mL (≈ 1.07 µM)	0.8 µg/mL (≈ 2.14 µM)	>1000 µg/mL	MIC [5, 15]: 0.4 µg/mL (≈ 1.07 µM); MIC [5, 16]: 3.12 µg/mL (≈ 8.33 µM)
Cc1c(N2CC[C@@H](N)[C@H](C)C2)c(F)cc2c(=O)c(C(=O)O)cn(C3CC3)c12.Cl (single isomer, unassigned) [Compound 98, trans-1-Cyclopropyl-6-fluoro-1,4-dihydro-8-methyl-7-(4-amino-3-methyl-1-piperidinyl)-4-oxo-quinoline-3-carboxylic acid hydrochloride]	–	0.1 µg/mL	0.006 µg/mL	1.56 µg/mL	0.025 µg/mL	0.025 µg/mL	0.05 µg/mL	250 µg/mL	262 to 265 °C	3.12 µg/mL	1.56 µg/mL	1.56 µg/mL	1.56 µg/mL	1000 µg/mL	–
Cc1c(N2CC[C@H](N)[C@H](C)C2)c(F)cc2c(=O)c(C(=O)O)cn(C3CC3)c12.Cl (relative stereo) [Compound 100, cis-1-Cyclopropyl-6-fluoro-1,4-dihydro-8-methyl-7-(4-amino-3-methyl-1-piperidinyl)-4-oxo-quinoline-3-carboxylic acid hydrochloride]	30 mg/kg	0.1 µg/mL	0.0012 µg/mL	3.12 µg/mL	0.025 µg/mL	0.025 µg/mL	0.05 µg/mL	125 µg/mL	255 to 260 °C	3.12 µg/mL	1.56 µg/mL	1.56 µg/mL	1.56 µg/mL	1000 µg/mL	–
Cc1c(N2CCC(N)C(C)(C)C2)c(F)cc2c(=O)c(C(=O)O)cn(C3CC3)c12.Cl (racemic) [Compound 102, (±)-1-Cyclopropyl-6-fluoro-1,4-dihydro-8-methyl-7-(4-amino-3,3-dimethyl-1-piperidinyl)-4-oxo-quinoline-3-carboxylic acid hydrochloride]	30 mg/kg	0.05 µg/mL	0.025 µg/mL	3.12 µg/mL	0.025 µg/mL	0.025 µg/mL	0.025 µg/mL	750 µg/mL	–	1.56 µg/mL	0.8 µg/mL	1.56 µg/mL	0.8 µg/mL	1000 µg/mL	–
COc1c(N2C[C@@H]3CCCN[C@@H]3C2)c(F)cc2c(=O)c(C(=O)O)cn(C3CC3)c12 [Moxifloxacin, reference compound]	> 100 mg/kg	0.2 µg/mL (≈ 0.498 µM)	0.05 µg/mL (≈ 0.125 µM)	–	0.4 µg/mL (≈ 0.996 µM)	0.05 µg/mL (≈ 0.125 µM)	0.2 µg/mL (≈ 0.498 µM)	–	–	–	–	–	–	–	MIC (MRSA 5027; [17]): 0.4 µg/mL (≈ 0.996 µM)
N[C@@H]1[C@H]2CN(c3nc4c(cc3F)c(=O)c(C(=O)O)cn4-c3ccc(F)cc3F)C[C@@H]12 [Trovafloxacin]	–	–	–	–	–	–	–	–	–	–	–	–	–	500 µg/mL	MIC (MRSA 5027; [17]): 0.4 µg/mL (≈ 0.961 µM); MIC (MRSA 5027; read-out: MIC against MRSA 5027 after 10 passages in drug containing medium): 50 µg/mL (≈ 120 µM)
COc1c(N2CCC(N)C(C)(C)C2)c(F)cc2c(=O)c(C(=O)O)cn(C3CC3)c12.Cl (single isomer, unassigned; (-)) [Compound 26, (−)-1-Cyclopropyl-6-fluoro-1,4-dihydro-8-methoxy-7-(4-amino-3,3-dimethyl-1-piperidinyl)-4-oxo-quinoline-3-carboxylic acid hydrochloride]	–	–	–	–	–	–	–	–	–	–	0.8 µg/mL	–	0.8 µg/mL	>1000 µg/mL	Cytotoxic concentration, V 79 CHL ([3]; hydrochloride): >1000 µg/mL; ED50 p.o., MDR S. pneumoniae 718 [1]: 50 mg/kg
Cc1c(N2CC[C@H](O)[C@H](C)C2)c(F)cc2c(=O)c(C(=O)O)cn(C3CC3)c12 (relative stereo) [Compound 93, cis-1-Cyclopropyl-6-fluoro-8-methyl-7-(4-hydroxy-3-methyl-1-piperidinyl)-1,4-dihydro-4-oxo-quinoline-3-carboxylic acid]	–	0.05 µg/mL (≈ 0.134 µM)	0.2 µg/mL (≈ 0.534 µM)	3.12 µg/mL (≈ 8.33 µM)	0.05 µg/mL (≈ 0.134 µM)	0.003 µg/mL (≈ 0.00801 µM)	0.025 µg/mL (≈ 0.0668 µM)	>1000 µg/mL	206 to 210 °C	0.4 µg/mL (≈ 1.07 µM)	0.2 µg/mL (≈ 0.534 µM)	0.4 µg/mL (≈ 1.07 µM)	0.8 µg/mL (≈ 2.14 µM)	>1000 µg/mL	MIC [5, 15]: 0.4 µg/mL (≈ 1.07 µM); MIC [5, 16]: 3.12 µg/mL (≈ 8.33 µM)
COc1c(N2CCC(N)C(C)(C)C2)c(F)cc2c(=O)c(C(=O)O)cn(C3CC3)c12.Cl (single isomer, unassigned; (+)) [Compound 22, (+)-1-Cyclopropyl-6-fluoro-1,4-dihydro-8-methoxy-7-(4-amino-3,3-dimethyl-1-piperidinyl)-4-oxo-quinoline-3-carboxylic acid hydrochloride]	–	–	–	–	–	–	–	–	–	–	–	0.8 µg/mL	–	>1000 µg/mL	Cytotoxic concentration, V 79 CHL ([3]; hydrochloride): 1000 µg/mL; MICs ([4]; Cipro^R S. sanguis 941, hydrochloride): 0.2 µg/mL; MICs ([4]; MRSA 032): 0.8 µg/mL; ED50 p.o., MDR S. pneumoniae 718 [1]: 20 mg/kg
C[C@H]1COc2c(N3CCN(C)CC3)c(F)cc3c(=O)c(C(=O)O)cn1c23 [S-(−)-levofloxacin, reference compound]	> 100 mg/kg	0.8 µg/mL (≈ 2.21 µM)	0.025 µg/mL (≈ 0.0692 µM)	3.12 µg/mL (≈ 8.63 µM)	1.56 µg/mL (≈ 4.32 µM)	0.2 µg/mL (≈ 0.553 µM)	0.8 µg/mL (≈ 2.21 µM)	–	–	12.5 µg/mL (≈ 34.6 µM)	6.25 µg/mL (≈ 17.3 µM)	25 µg/mL (≈ 69.2 µM)	12.5 µg/mL (≈ 34.6 µM)	–	–
